Our source for the Kd values is patent publication US20230203098A1, “HUMAN TRANSFERRIN RECEPTOR BINDING PEPTIDE” (priority 2020, published 2023).

Where a SMILES comes first, the peptide text is derived from it. Bridges are numbered along the chain shown (N, C = ends). [ ]: non-standard residue; d: D form. Phe(3,4-(OMe)2) = COc1ccc(C[C@H](N)C(=O)O)cc1OC; NMePhe(3-Cl) = CN[C@@H](Cc1cccc(Cl)c1)C(=O)O; NMeW = CN[C@@H](Cc1c[nH]c2ccccc12)C(=O)O; Lys(N3) = [N-]=[N+]=NCCCC[C@H](N)C(=O)O; NMeY = CN[C@@H](Cc1ccc(O)cc1)C(=O)O; PEG4 = NCCOCCOCCOCCOCCC(=O)O; Tle = CC(C)(C)[C@H](N)C(=O)O; Nva = CCC[C@H](N)C(=O)O; Abu = CC[C@H](N)C(=O)O; Aib = CC(C)(N)C(=O)O

The target of the experiment is transferrin receptor (hTfR) (Homo sapiens, UniProt P02786). Kind of experiment: Intermolecular interaction evaluation test between transferrin receptor (hTfR) and peptide by surface plasmon resonance (SPR). Type of experiment: binding. As to conditions: surface plasmon resonance, peptide vs hTfR; read-out: KD value, hTfR binding by SPR (class symbol). Summed up: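 hTfR captured on Ni-NTA chip then amine-coupled; peptides run single-cycle kinetics at 5–100 nM in 10 mM HEPES pH 8.0, 150 mM NaCl, 0.05% Tween 20, 0.1% BSA, 1.0% DMSO. KD from least-squares curve fitting of sensorgrams.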
transferrin receptor (hTfR), sequence (P02786 whole entry): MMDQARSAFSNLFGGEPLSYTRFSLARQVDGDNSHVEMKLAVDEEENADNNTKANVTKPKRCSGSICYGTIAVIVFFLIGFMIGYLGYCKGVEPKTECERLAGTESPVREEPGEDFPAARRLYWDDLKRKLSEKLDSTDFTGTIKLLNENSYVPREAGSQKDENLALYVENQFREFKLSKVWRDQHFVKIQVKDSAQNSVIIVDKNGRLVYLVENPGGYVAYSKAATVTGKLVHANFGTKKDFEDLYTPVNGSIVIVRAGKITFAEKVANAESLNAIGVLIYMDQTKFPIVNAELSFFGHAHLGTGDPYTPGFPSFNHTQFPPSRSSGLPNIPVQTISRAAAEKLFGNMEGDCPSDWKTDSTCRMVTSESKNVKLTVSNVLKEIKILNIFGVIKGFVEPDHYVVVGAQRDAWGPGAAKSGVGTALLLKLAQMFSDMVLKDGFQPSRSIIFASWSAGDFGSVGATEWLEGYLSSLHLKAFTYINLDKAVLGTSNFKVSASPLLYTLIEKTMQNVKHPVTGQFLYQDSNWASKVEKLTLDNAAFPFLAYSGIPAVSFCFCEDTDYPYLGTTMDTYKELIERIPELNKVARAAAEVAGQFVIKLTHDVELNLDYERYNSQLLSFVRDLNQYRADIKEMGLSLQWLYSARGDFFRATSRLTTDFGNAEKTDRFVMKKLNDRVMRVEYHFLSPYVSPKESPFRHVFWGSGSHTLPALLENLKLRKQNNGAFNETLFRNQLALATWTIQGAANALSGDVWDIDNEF
For orientation: SPR reads the build-up and loss of mass on a sensor chip optically.
A word on the Kd: it is the constant that tells how readily two partners part at equilibrium. On to `CC[C@H](C)[C@@H]1NC(=O)[C@H](Cc2ccc(OC)cc2)NC(=O)[C@H](Cc2ccc(O)cc2)NC(=O)[C@H](CC(N)=O)NC(=O)[C@H](Cc2c[nH]c3ccccc23)NC(=O)[C@H](C(C)C)NC(=O)[C@H](Cc2cccc(Cl)c2)N(C)C(=O)[C@H](C(C)C)NC(=O)[C@H](C)NC(=O)CSC[C@@H](C(=O)NCC(=O)NCC(=O)N[C@@H](CO)C(=O)NCC(=O)N[C@@H](CO)C(=O)NCC(=O)N[C@@H](CCCCN=[N+]=[N-])C(N)=O)NC(=O)[C@H](Cc2ccc(O)cc2)N(C)C(=O)[C@H](Cc2ccccc2)NC(=O)[C@@H](CCCCN)NC(=O)[C@H](CCCNC(=N)N)NC(=O)[C@H]([C@@H](C)CC)NC1=O` [compound 313], for which the Kd lay in the range of 1 to 100 nM. On to `CC[C@H](C)[C@@H]1NC(=O)[C@H](Cc2ccc(OC)cc2)NC(=O)[C@H](Cc2ccc(O)cc2)NC(=O)[C@H](CC(N)=O)NC(=O)[C@H](Cc2c[nH]c3ccccc23)NC(=O)[C@H](C(C)C)NC(=O)[C@H](Cc2cccc(Cl)c2)N(C)C(=O)[C@H](C(C)C)NC(=O)[C@H](C)NC(=O)CSC[C@@H](C(=O)NCC(=O)NCC(=O)N[C@@H](CO)C(=O)NCC(=O)N[C@@H](CO)C(=O)NCC(=O)N[C@@H](CCCCN=[N+]=[N-])C(N)=O)NC(=O)[C@H](Cc2ccc(O)cc2)N(C)C(=O)[C@H](Cc2ccccc2)NC(=O)[C@@H](CCCNC(=N)N)NC(=O)[C@H](CCCCN)NC(=O)[C@H]([C@@H](C)CC)NC1=O` [compound 314] ({CH2CO}-AV[NMePhe(3-Cl)]VWNYY(Me)IIK[dR]F[NMeY]CGGSGSG[Lys(N3)]-NH2; thioether N-15; C-terminus assumed), for which the Kd is 1 to 100 nM.

As to `CC[C@H](C)[C@@H]1NC(=O)[C@H](Cc2ccc(OC)c(OC)c2)NC(=O)[C@H](Cc2ccc(O)cc2)NC(=O)[C@H](CC(N)=O)NC(=O)[C@H](Cc2c[nH]c3ccccc23)N(C)C(=O)[C@H](C(C)C)NC(=O)[C@H](Cc2cccc(Cl)c2)N(C)C(=O)[C@H](C(C)C)NC(=O)[C@H](C)NC(=O)CSC[C@@H](C(N)=O)NC(=O)[C@H](Cc2ccc(O)cc2)N(C)C(=O)[C@H](Cc2ccccc2)NC(=O)[C@@H](CCCNC(=N)N)NC(=O)[C@H](CCCNC(=N)N)NC(=O)[C@H]([C@@H](C)CC)NC1=O` [compound 318] ({CH2CO}-AV[NMePhe(3-Cl)]V[NMeW]NY[Phe(3,4-(OMe)2)]IIR[dR]F[NMeY]C-NH2; thioether N-15), the Kd was 1 to 100 nM. The figure for `CC[C@H](C)[C@@H]1NC(=O)[C@H](Cc2ccc(OCC(=O)O)cc2)NC(=O)[C@H](Cc2ccc(O)cc2)NC(=O)[C@H](CC(N)=O)NC(=O)[C@H](Cc2c[nH]c3ccccc23)N(C)C(=O)[C@H](C(C)C)NC(=O)[C@H](Cc2cccc(Cl)c2)N(C)C(=O)[C@H](C(C)C)NC(=O)[C@H](C)NC(=O)CSC[C@@H](C(N)=O)NC(=O)[C@H](Cc2ccc(O)cc2)N(C)C(=O)[C@H](Cc2ccccc2)NC(=O)[C@@H](CCCNC(=N)N)NC(=O)[C@H](CCCNC(=N)N)NC(=O)[C@H]([C@@H](C)CC)NC1=O` [compound 320] is 1 to 100 nM; for `CC[C@H](C)[C@@H]1NC(=O)[C@H](Cc2ccc(OCCN)cc2)NC(=O)[C@H](Cc2ccc(O)cc2)NC(=O)[C@H](CC(N)=O)NC(=O)[C@H](Cc2c[nH]c3ccccc23)N(C)C(=O)[C@H](C(C)C)NC(=O)[C@H](Cc2cccc(Cl)c2)N(C)C(=O)[C@H](C(C)C)NC(=O)[C@H](C)NC(=O)CSC[C@@H](C(N)=O)NC(=O)[C@H](Cc2ccc(O)cc2)N(C)C(=O)[C@H](Cc2ccccc2)NC(=O)[C@@H](CCCNC(=N)N)NC(=O)[C@H](CCCNC(=N)N)NC(=O)[C@H]([C@@H](C)CC)NC1=O` [compound 321] it is 1 to 100 nM.

Consider `CC[C@H](C)[C@@H]1NC(=O)[C@H](Cc2ccc(O)cc2)NC(=O)[C@H](Cc2ccc(O)cc2)NC(=O)[C@H](CC(N)=O)NC(=O)[C@H](Cc2c[nH]c3ccccc23)N(C)C(=O)[C@H](C(C)C)NC(=O)[C@H](Cc2cccc(Cl)c2)N(C)C(=O)[C@H](C(C)C)NC(=O)[C@H](C)NC(=O)CSC[C@@H](C(=O)NCCOCCOCCOCCOCCC(N)=O)NC(=O)[C@H](Cc2ccc(O)cc2)N(C)C(=O)[C@H](Cc2ccccc2)NC(=O)[C@@H](CCCNC(=N)N)NC(=O)C(C)(C)NC(=O)[C@H]([C@@H](C)CC)NC1=O` [compound 322], for which the Kd was 1 to 100 nM.

`CC[C@H](C)[C@@H]1NC(=O)[C@H](Cc2ccc(OC)nc2)NC(=O)[C@H](Cc2ccc(O)cc2)NC(=O)[C@H](CC(N)=O)NC(=O)[C@H](Cc2c[nH]c3ccccc23)N(C)C(=O)[C@H](C(C)C)NC(=O)[C@H](Cc2cccc(Cl)c2)N(C)C(=O)[C@H](C(C)C)NC(=O)[C@H](C)NC(=O)CSC[C@@H](C(N)=O)NC(=O)[C@H](Cc2ccc(O)cc2)N(C)C(=O)[C@H](Cc2ccccc2)NC(=O)[C@@H](CCCNC(=N)N)NC(=O)C(C)(C)NC(=O)[C@H]([C@@H](C)CC)NC1=O` [compound 323]: the Kd lay within 1 to 100 nM. `CC[C@H](C)[C@@H]1NC(=O)[C@H](Cc2ccc(OCC(=O)O)cc2)NC(=O)[C@H](Cc2ccc(O)cc2)NC(=O)[C@H](CC(N)=O)NC(=O)[C@H](Cc2c[nH]c3ccccc23)N(C)C(=O)[C@H](C(C)C)NC(=O)[C@H](Cc2cccc(Cl)c2)N(C)C(=O)[C@H](C(C)C)NC(=O)[C@H](C)NC(=O)CSC[C@@H](C(N)=O)NC(=O)[C@H](Cc2ccc(O)cc2)N(C)C(=O)[C@H](Cc2ccccc2)NC(=O)[C@@H](CCCNC(=N)N)NC(=O)C(C)(C)NC(=O)[C@H]([C@@H](C)CC)NC1=O` [compound 324]: the Kd is more than 1000 nM. Turning to `CC[C@@H]1NC(=O)[C@H]([C@@H](C)CC)NC(=O)[C@H](Cc2ccc(OC)cc2)NC(=O)[C@H](Cc2ccc(O)cc2)NC(=O)[C@H](CC(N)=O)NC(=O)[C@H](Cc2c[nH]c3ccccc23)N(C)C(=O)[C@H](C(C)C)NC(=O)[C@H](Cc2cccc(Cl)c2)N(C)C(=O)[C@H](C(C)C)NC(=O)[C@H](C)NC(=O)CSC[C@@H](C(=O)NCCOCCOCCOCCOCCC(N)=O)NC(=O)[C@H](Cc2ccc(O)cc2)N(C)C(=O)[C@H](Cc2ccccc2)NC(=O)[C@@H](CCCNC(=N)N)NC(=O)[C@H](CCCNC(=N)N)NC1=O` [compound 325] ({CH2CO}-AV[NMePhe(3-Cl)]V[NMeW]NYY(Me)I[Abu]R[dR]F[NMeY]C[PEG4]-NH2; thioether N-15), the Kd was in the range of 1 to 100 nM. For the compound `CCC[C@@H]1NC(=O)[C@H]([C@@H](C)CC)NC(=O)[C@H](Cc2ccc(OC)cc2)NC(=O)[C@H](Cc2ccc(O)cc2)NC(=O)[C@H](CC(N)=O)NC(=O)[C@H](Cc2c[nH]c3ccccc23)N(C)C(=O)[C@H](C(C)C)NC(=O)[C@H](Cc2cccc(Cl)c2)N(C)C(=O)[C@H](C(C)C)NC(=O)[C@H](C)NC(=O)CSC[C@@H](C(=O)NCCOCCOCCOCCOCCC(N)=O)NC(=O)[C@H](Cc2ccc(O)cc2)N(C)C(=O)[C@H](Cc2ccccc2)NC(=O)[C@@H](CCCNC(=N)N)NC(=O)[C@H](CCCNC(=N)N)NC1=O` [compound 326] ({CH2CO}-AV[NMePhe(3-Cl)]V[NMeW]NYY(Me)I[Nva]R[dR]F[NMeY]C[PEG4]-NH2; thioether N-15), the Kd is 1 to 100 nM. Turning to `CC[C@H](C)[C@@H]1NC(=O)[C@H](Cc2ccc(OC)cc2)NC(=O)[C@H](Cc2ccc(O)cc2)NC(=O)[C@H](CC(N)=O)NC(=O)[C@H](Cc2c[nH]c3ccccc23)N(C)C(=O)[C@H](C(C)C)NC(=O)[C@H](Cc2cccc(Cl)c2)N(C)C(=O)[C@H](C(C)C)NC(=O)[C@H](C)NC(=O)CSC[C@@H](C(=O)NCCOCCOCCOCCOCCC(N)=O)NC(=O)[C@H](Cc2ccc(O)cc2)N(C)C(=O)[C@H](Cc2ccccc2)NC(=O)[C@@H](CCCNC(=N)N)NC(=O)[C@H](CCCNC(=N)N)NC(=O)[C@H](C(C)(C)C)NC1=O` [compound 327] ({CH2CO}-AV[NMePhe(3-Cl)]V[NMeW]NYY(Me)I[Tle]R[dR]F[NMeY]C[PEG4]-NH2; thioether N-15), the Kd was in the range of 1 to 100 nM.

Consider `CC[C@H](C)[C@@H]1NC(=O)[C@H](Cc2ccc(OC)cc2)NC(=O)[C@H](Cc2ccc(O)cc2)NC(=O)[C@H](CC(N)=O)NC(=O)[C@H](Cc2c[nH]c3ccccc23)N(C)C(=O)[C@H](C(C)C)NC(=O)[C@H](Cc2cccc(Cl)c2)N(C)C(=O)[C@H](C(C)C)NC(=O)[C@H](C)NC(=O)CSC[C@@H](C(=O)NCCOCCOCCOCCOCCC(N)=O)NC(=O)[C@H](Cc2ccc(O)cc2)N(C)C(=O)[C@H](Cc2ccccc2)NC(=O)[C@@H](CCCNC(=N)N)NC(=O)[C@H](CCCNC(=N)N)NC(=O)[C@H]([C@@H](C)O)NC1=O` [compound 331], for which the Kd was in the range of 1 to 100 nM. The figure for `CC[C@H](C)[C@@H]1NC(=O)[C@H](Cc2ccc(OC)cc2)NC(=O)[C@H](Cc2ccc(O)cc2)NC(=O)[C@H](CC(N)=O)NC(=O)[C@H](Cc2c[nH]c3ccccc23)N(C)C(=O)[C@H](C(C)C)NC(=O)[C@H](Cc2cccc(Cl)c2)N(C)C(=O)[C@H](C(C)C)NC(=O)[C@H](C)NC(=O)CSC[C@@H](C(=O)NCCOCCOCCOCCOCCC(N)=O)NC(=O)[C@H](Cc2ccc(O)cc2)N(C)C(=O)[C@H](Cc2ccccc2)NC(=O)[C@@H](CCCNC(=N)N)NC(=O)[C@H](CCCNC(=N)N)NC(=O)[C@H]([C@H](C)O)NC1=O` [compound 332] is 1 to 100 nM; for `CC[C@H](C)[C@@H]1NC(=O)[C@H](Cc2ccc(OC)cc2)NC(=O)[C@H](Cc2ccc(O)cc2)NC(=O)[C@H](CC(N)=O)NC(=O)[C@H](Cc2c[nH]c3ccccc23)N(C)C(=O)[C@H](C(C)C)NC(=O)[C@H](Cc2cccc(Cl)c2)N(C)C(=O)[C@H](C(C)C)NC(=O)[C@H](C)NC(=O)CSC[C@@H](C(=O)NCCOCCOCCOCCOCCC(N)=O)NC(=O)[C@H](Cc2ccc(O)cc2)N(C)C(=O)[C@H](Cc2ccccc2)NC(=O)[C@@H](CCCNC(=N)N)NC(=O)[C@H](CCCNC(=N)N)NC(=O)C(C)(C)NC1=O` [compound 333] ({CH2CO}-AV[NMePhe(3-Cl)]V[NMeW]NYY(Me)I[Aib]R[dR]F[NMeY]C[PEG4]-NH2; thioether N-15) it is 1 to 100 nM.
